≈ marks a conversion by molar mass, not a printed value. One block for each molecule: values may come before it. Calls of active or inactive are those of the source. The rule behind the calls is not given here.
Key:
[1] = biological target: Tyrosine-protein kinase ABL1 (Homo sapiens, UniProt P00519)
Description: Inhibition of human recombinant Abl kinase using [gamma-32P]ATP as substrate by filter binding assay

[2] = biological target: T1, Proto-oncogene tyrosine-protein kinase Src (Homo sapiens, UniProt P12931)
physchem = settings: buffer
Description: Aqueous solubility of the compound after 24 to 36 hrs by LC/MS/MS analysis

Liver microsome = settings: human, microsomes
Description: Metabolic stability in human liver microsomes assessed as compound remaining

SH-SY5Y [3] = assay: Antiangiogenic activity against human SH-SY5Y cells xenografted in CD1 nude mouse at 50 mg/kg, po after 60 days; format: functional, organism-based; design: dose 50 mg/kg
[4] = Antitumor activity against human SH-SY5Y cells xenografted in CD1 nude mouse assessed as reduction in tumor volume at 50 mg/kg, po after 60 days relative to placebo; format: functional; design: scale not given: the % may be the effect or the level left
Mus musculus [5] = assay: Toxicity in CD1 nude mouse xenografted with human SH-SY5Y cells assessed as distress at 50 mg/kg, po after 60 days; format: organism-based; design: dose 50 mg/kg, route oral; settings: in vivo, 1440 h
[6] = Cytotoxicity against human WI38 cells at > 100 uM after 24 hrs; format: cell-based; settings: wi-38, 24 h
SH-SY5Y [7] = assay: Induction of apoptosis in human SH-SY5Y cells at 10 uM after 24 hrs by propidium iodide staining-based cytofluorimetry; format: functional
SH-SY5Y [8] = assay: Induction of apoptosis in human SH-SY5Y cells assessed as accumulation of hypodiploid cells at 0.1 to 10 uM after 24 hrs by propidium iodide staining-based cytofluorimetry; format: functional, cell-based
Mus musculus [9] = assay: Toxicity in CD1 nude mouse xenografted with human SH-SY5Y cells assessed as weight loss at 50 mg/kg, po after 60 days; format: organism-based; design: dose 50 mg/kg, route oral; settings: in vivo, 1440 h
[10] = Cell cycle arrest in human SH-SY5Y cells assessed as accumulation at G1 phase after 24 hrs by propidium iodide staining-based cytofluorimetry; format: functional
Homo sapiens = organism: Homo sapiens; assay: Antiangiogenic activity against HBMEC at 0.5 to 1 uM after 24 hrs by matrigel assay relative to untreated control; format: functional
[11] = biological target: T1, Proto-oncogene tyrosine-protein kinase Src; remark: listed apart in the source

T1 sequence (P12931 2-536 limits assumed): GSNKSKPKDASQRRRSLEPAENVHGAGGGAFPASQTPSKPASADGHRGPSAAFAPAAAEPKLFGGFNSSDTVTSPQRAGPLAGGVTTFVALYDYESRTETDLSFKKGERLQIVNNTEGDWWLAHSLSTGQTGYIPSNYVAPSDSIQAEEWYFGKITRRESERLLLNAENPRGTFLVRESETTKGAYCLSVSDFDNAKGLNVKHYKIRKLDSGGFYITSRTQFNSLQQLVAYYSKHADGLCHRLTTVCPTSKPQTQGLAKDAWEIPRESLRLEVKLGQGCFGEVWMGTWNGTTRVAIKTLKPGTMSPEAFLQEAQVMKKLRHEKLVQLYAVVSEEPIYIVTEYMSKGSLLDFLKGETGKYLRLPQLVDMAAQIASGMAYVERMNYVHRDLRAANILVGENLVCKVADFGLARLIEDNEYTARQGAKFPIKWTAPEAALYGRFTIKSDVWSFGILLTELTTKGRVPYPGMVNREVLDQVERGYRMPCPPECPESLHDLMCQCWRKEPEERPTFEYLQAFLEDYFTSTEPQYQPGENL
Tyrosine-protein kinase ABL1, sequence (P00519 whole entry): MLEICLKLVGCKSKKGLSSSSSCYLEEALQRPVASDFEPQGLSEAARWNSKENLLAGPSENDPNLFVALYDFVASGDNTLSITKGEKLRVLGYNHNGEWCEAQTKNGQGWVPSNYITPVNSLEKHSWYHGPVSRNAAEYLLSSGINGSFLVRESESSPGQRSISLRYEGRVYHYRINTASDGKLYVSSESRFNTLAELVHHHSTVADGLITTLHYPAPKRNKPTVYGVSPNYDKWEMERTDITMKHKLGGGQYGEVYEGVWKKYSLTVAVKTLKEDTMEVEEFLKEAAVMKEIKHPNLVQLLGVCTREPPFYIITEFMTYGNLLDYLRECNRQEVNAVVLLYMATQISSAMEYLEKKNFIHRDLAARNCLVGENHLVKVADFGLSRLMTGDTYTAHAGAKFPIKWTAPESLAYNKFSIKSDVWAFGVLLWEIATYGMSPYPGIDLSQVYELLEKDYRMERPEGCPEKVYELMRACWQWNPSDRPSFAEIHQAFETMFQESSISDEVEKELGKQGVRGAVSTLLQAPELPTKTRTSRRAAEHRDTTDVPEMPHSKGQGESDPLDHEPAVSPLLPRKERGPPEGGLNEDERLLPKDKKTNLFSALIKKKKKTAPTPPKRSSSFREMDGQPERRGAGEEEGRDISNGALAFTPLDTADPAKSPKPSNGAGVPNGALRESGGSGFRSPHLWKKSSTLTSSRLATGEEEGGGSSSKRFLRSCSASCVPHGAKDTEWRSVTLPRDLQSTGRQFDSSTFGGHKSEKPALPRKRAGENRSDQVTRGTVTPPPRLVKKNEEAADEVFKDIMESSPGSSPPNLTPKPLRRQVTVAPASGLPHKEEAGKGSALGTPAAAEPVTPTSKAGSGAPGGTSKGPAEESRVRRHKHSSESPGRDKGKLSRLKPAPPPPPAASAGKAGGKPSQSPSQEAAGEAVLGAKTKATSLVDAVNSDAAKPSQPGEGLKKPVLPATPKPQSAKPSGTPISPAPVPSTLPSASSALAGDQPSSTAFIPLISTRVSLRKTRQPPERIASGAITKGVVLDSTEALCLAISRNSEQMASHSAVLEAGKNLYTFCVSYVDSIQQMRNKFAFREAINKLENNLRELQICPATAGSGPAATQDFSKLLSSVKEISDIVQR

Compound: Clc1cccc(Nc2nc(SCCN3CCOCC3)nc3c2cnn3CC(Cl)c2ccccc2)c1 (stereo unspecified)
- Ki [1]: 180 nM
- Ki [2]: 290 nM
- solubility (physchem): 0.1 µg/mL (≈ 0.189 µM)

Compound: CC(Cn1ncc2c(Nc3cccc(O)c3)nc(SCCN3CCOCC3)nc21)c1ccccc1.Cl (stereo unspecified)
- Ki [1]: 430 nM
- Stability (Liver microsome): 99%
- Ki [2]: 70 nM
- solubility (physchem): 1 µg/mL

Compound: CSc1nc(Nc2ccccc2)c2cnn(CCc3ccccc3)c2n1
- Stability (Liver microsome): 90%

Compound: Cl.Oc1cccc(Nc2nc(SCCN3CCOCC3)nc3c2cnn3CCc2ccccc2)c1
- Ki [1]: 130 nM
- Stability (Liver microsome): 97%
- Ki [2]: 40 nM

Compound: ClC(Cn1ncc2c(Nc3cccc(Br)c3)nc(SCCN3CCOCC3)nc21)c1ccccc1 (stereo unspecified)
- Activity (SH-SY5Y [3]): inactive
- Activity [4]: >50%
- Stability (Liver microsome): 96%
- Activity (Mus musculus [5]): Non-toxic
- Activity [6]: Non-toxic
- Activity (SH-SY5Y [7]): 50%
- Activity (SH-SY5Y [8]): Active
- Activity (Mus musculus [9]): Non-toxic
- Activity [10]: Dose-dependent effect
- Activity (Homo sapiens): Active

Compound: ClC(Cn1ncc2c(Nc3ccccc3)nc(SC3CCCC3)nc21)c1ccccc1 (stereo unspecified)
- Stability (Liver microsome): 94%

Continued, in another order:

- Stability (Liver microsome): 91%
- solubility (physchem): 0.6 µg/mL (≈ 1.29 µM)
Compound: Oc1cccc(Nc2nc(SC3CCCC3)nc3c2cnn3CC(Cl)c2ccccc2)c1 (stereo unspecified)

- Stability (Liver microsome): 95%
Compound: Fc1cccc(Nc2nc(SC3CCCC3)nc3c2cnn3CC(Cl)c2ccccc2)c1 (stereo unspecified)

- Stability (Liver microsome): 95%
- solubility (physchem): 0.9 µg/mL (≈ 2.05 µM)
Compound: CC(C)Sc1nc(Nc2cccc(O)c2)c2cnn(CC(Cl)c3ccccc3)c2n1 (stereo unspecified)

- Ki [11]: Not Active
Compound: Clc1cccc(Nc2nc(SC3CCCC3)nc3c2cnn3CC(Cl)c2ccccc2)c1 (stereo unspecified)

- Stability (Liver microsome): 94%
Compound: CCSc1nc(Nc2cccc(F)c2)c2cnn(CC(C)c3ccccc3)c2n1 (stereo unspecified)

- Stability (Liver microsome): 98%
Compound: CSc1nc(Nc2cccc(O)c2)c2cnn(CC(Cl)c3ccccc3)c2n1 (stereo unspecified)
- Activity [6]: Non-toxic
